{
  "source": "patent US20200155638A1",
  "about": "“Enhancing Oxytocin Receptor Expression Using an Oxytocin Receptor Agonist and an Alk5 Antagonist” (The Regents of the University of California, priority 2017, published 2020)",
  "key": {"oxytocin receptor (OXTR)": {"test_system": "oxytocin receptor (OXTR)", "experiment": "OXTR expression in skeletal muscle by real-time qRT PCR", "format": "in vivo, C57.B6 mice", "settings": "old mice, s.c. daily 7 days, compared to control HBSS", "experimental": "Old C57.B6 male mice (23-24 mo) per were administered by subcutaneous injections with oxytocin (OXT), Alk5i, a mixture of OXT and Alk5i (OXT+Alk5i) or control in vivo for 7 days, daily. The expression levels of oxytocin receptor (OXTR) were assayed by real-time qRT PCR in skeletal muscle of these mice.\nOT and/or A5i or control vehicle (HBSS) was injected subcutaneously to old male C57.B6 mice (23-24 month), daily for 7 days before sacrifice. 3 month C57.B6 male mice identically injected with HBSS were used as young controls\nqPCR analysis: Tissue lysates from frozen muscle, liver, and brain embedded in OCT were prepared. 40 slices of 10 μm thick slices were collected and homogenized using QIAShredder (from QIAGEN). Total RNA was extracted with RNeasy Mini Kit (from QIAGEN) according to manufacturer's instructions. Reverse transcription was performed with Superscript III First-Stand Synthesis System (from Invitrogen) according to manufacturer's instructions. For real-time PCR amplification and quantification of gene of interest, 1 ug of total cDNA was used for the initial amplification using specific primers to each gene of interest; amplification was performed with a denaturation step at 95 C for 10 minutes, followed by 40 cycles of denaturation at 95 C for 15 seconds and primer extension at 60 C for 30 s. Real-time PCR was performed using iQ™ SYBR Green Supermix (from Bio-Rad) under CFX Connect Real-Time System (Bio-Rad). Reactions were run in triplicates. Housekeeping gene actin was used as an internal control to normalize the variability in expression levels, and results were analyzed using the 2-ΔΔCT method described (50)."}, "[1]": {"test_system": "neural stem cells (Sox-2+) in the subgranular zone of the Dentate Gyrus", "experiment": "Hippocampal neurogenesis in old mice (proliferating Sox-2+ neural stem cells in SGZ)", "format": "in vivo", "settings": "old mice with CTX muscle injury, 7 days treatment, vs HBSS control", "experimental": "In addition to the cohort that underwent muscle injury, we also performed a study with old mice that were not injured. Young mice administered with control HBSS served as control. […] Hippocampal neurogenesis was assayed in the same mice that were studied for muscle repair above and additionally for mice that were not injured by cardiotoxin. The numbers of proliferating neural stem cells (Sox2+Ki67+) cells per DG of SGZ of hippocampus were quantified in serial brain cryosections. […] NS=non-statistically significant. […] Scale bar=100 microns. […] Data quantification: Muscle regeneration indices were calculated by counting percent de-novo myofibers with central nuclei to total nuclei in multiple images of 10-micron muscle sections for independently treated animals. Muscle fibrosis was quantified by measuring fibrotic areas on Image J. These fibrotic areas were normalized to the area of the image taken at 20× (˜14000 micron^2). Hippocampal neurogenesis (Sox2+/Ki67+, Sox2/BrdU+), p16+SGZ cell numbers and CD45+ cell numbers were quantified by counting the number of respective cells (from multiple 25-35-micron IF brain sections) and for neurogenesis and p16+ cells, extrapolating these numbers to the total thickness of the dentate gyrus. […]"}, "old mice": {"test_system": "old mice", "experiment": "Four-limb hanging test", "format": "in vivo", "settings": "old mice without muscle injury; for strength (average hang time): 7-day treatment; for learning: percent improvement from first to second hang time: before and after 7-day treatment", "experimental": "To assay functional performance, Alk5i alone (low dose), OT alone, Alk5i+OT and control HBSS were dosed to old mice without muscle injury, using young mice injected with HBSS as an additional control. The four-limb hanging test was given to all mice before and after the 7-day treatment. In order to better focus the test on the learning and memory aspects (rather than strength) we examined the percent improvement of each individual animal from the first to the second test session among all studied cohorts.\nA four-limb hanging test was conducted with mice before and after treatment by injection of oxytocin (OT), Alk5 inhibitor (A5i) or both, or control HBSS (young and old). The maximal hang time from two trials was considered and the percent change for each animal before and after treatment is shown. A difference is observed between young and all old cohorts (p<0.04) except for the old+Alk5i+OT where there is no statistically significant difference with the young (p=0.5) (test, 1 tail, heteroscedastic).\nFour limb hanging test: Muscle strength and endurance were determined by timing how long mice can hang upside down from a wire screen, as published (27). Briefly, each mouse was placed on a 1 cm. mesh, 1 mm wire screen, 30 cm over soft bedding, inverted and timed until the mouse fell. Each animal was given two to three trials with at least a 5-minute rest between trials. Hanging index is expressed as the maximum hang time times the weight of the mouse, with longer times or greater weight for a given time considered better performance."}, "p16": {"test_system": "p16", "experiment": "p16 protein in primary myotubes (Western Blotting)", "format": "cell-based", "settings": "24 hours treatment"}, "p21 [2]": {"test_system": "p21", "settings": "high dose, old mice; cited from earlier work"}, "muscle regeneration": {"test_system": "muscle regeneration", "settings": "short term subcutaneous injection; cited from earlier work"}, "p21 [3]": {"test_system": "p21", "settings": "pERK-dependent manner; cited from earlier work"}},
  "note": "“Also recorded” adds a separate entry of the source.",
  "data": [
    {"molecule": "2-(3-(6-Methylpyridin-2-yl)-1H-pyrazol-4-yl)-1,5-naphthyridine [Alk5i]", "values": [
      {"measurement": "OXTR expression levels in skeletal muscle", "setting": "oxytocin receptor (OXTR)", "value": "reduced the levels of the oxytocin receptor (OTR)"},
      {"measurement": "OXTR levels diminished by", "setting": "oxytocin receptor (OXTR)", "value": 2, "unit": "fold"},
      {"measurement": "hippocampal neurogenesis (Sox2+Ki67+ cells)", "setting": "[1]", "value": "failed to enhance the neurogenesis of the old animals"},
      {"measurement": "strength (average hang time)", "setting": "old mice", "value": "young animals outperformed all old cohorts"},
      {"measurement": "learning: percent improvement from first to second hang time", "setting": "old mice", "value": "did not show improvement"},
      {"measurement": "p16 protein levels in primary myotubes", "setting": "p16", "value": "not either molecule alone"},
      {"measurement": "p21 levels in brain", "setting": "p21 [2]", "value": "attenuates p21 levels in brain of old mice"}
    ]},
    {"molecule": "CC[C@H](C)[C@@H]1NC(=O)[C@H](Cc2ccc(O)cc2)NC(=O)[C@@H](N)CSSC[C@@H](C(=O)N2CCC[C@H]2C(=O)N[C@@H](CC(C)C)C(=O)NCC(N)=O)NC(=O)[C@H](CC(N)=O)NC(=O)[C@H](CCC(N)=O)NC1=O", "note": "[OT, Oxytocin]", "values": [
      {"measurement": "OXTR expression levels in skeletal muscle", "setting": "oxytocin receptor (OXTR); listed as OXT", "value": "had no effect; also recorded: did not have an effect on OXTR"},
      {"measurement": "hippocampal neurogenesis (Sox2+Ki67+ cells)", "setting": "[1]", "value": "failed to enhance the neurogenesis of the old animals"},
      {"measurement": "strength (average hang time)", "setting": "old mice", "value": "young animals outperformed all old cohorts"},
      {"measurement": "learning: percent improvement from first to second hang time", "setting": "old mice", "value": "did not show improvement"},
      {"measurement": "p16 protein levels in primary myotubes", "setting": "p16", "value": "not either molecule alone"},
      {"measurement": "muscle regeneration in old mice", "setting": "muscle regeneration", "value": "able to restore muscle regeneration in old mice"},
      {"measurement": "CDKI p21", "setting": "p21 [3]", "value": "down-modulate CDKI p21"}
    ]}
  ]
}
